Results published in US20150010917A1, “METHOD TO IDENTIFY LIGANDS FOR SIGMA-1 RECEPTORS” (LABORATORIOS DEL DR. ESTEVE S.A., priority 2012, published 2015).

Experiments:
σ1^YFP and CFP = assay: Control experiments with coexpression of σ1^YFP and CFP; assay type: cell-based, human; conditions: data not shown
Method: Next, we investigated whether σ1 challenge produced any rearrangements of the N- and C-terminal domains (i.e. conformational change) of the σ1 receptor by monitoring real time changes in the FRET efficiency. To this end, changes in the emission intensities of YFP (535 nm, yellow), CFP (480 nm, cyan) and the ratio F*535/F*480 (black) were recorded simultaneously from single cells after rapid superfusion with σ1 receptor ligands.

[1] = molecular target: T1, σ1^spCFP/YFP construct expressed in HEK-293 cells (Homo sapiens, UniProt Q99720); assay: Single-cell real-time intramolecular FRET (iFRET) of the σ1 receptor FRET sensor; assay type: cell-based; conditions: for change in the FRET signal of the σ1^spCFP/YFP: 100 μM, single HEK-293 cell, FIG. 3
T1 construct: PTHR (PTH1R) signal peptide (N); expressed in transfected cells; host or cells: HEK-293 (stably transfected, G418 selected)
Method: In the single cell real time intramolecular-FRET approach both donor (i.e. CFP) and acceptor (i.e. YFP) are located in the same molecule, as designed for the σ1^CFP/YFP and the σ1^spCFP/YFP constructs (FIG. 1A). In brief, HEK cells permanently expressing the corresponding σ1 receptor FRET sensor were seeded in poly-D-Lysine coated coverslips and allow growing overnight. Then, the coverslips with transfected cells were mounted in an Attofluor holder and placed on an inverted Axio Observer microscope (Zeiss, Jena, Germany) equipped with a 63× oil immersion objective and a dual-emission photometry system (Till Photonics, Gräfelfing, Germany). The extracellular buffer was Hank's Balanced Salt Solution (HBSS), containing (in mM): 137 NaCl, 0.34 Na2HPO4, […], 0.44 KH2PO4, 0.5 MgCl2, 0.4 Mg2SO4, 1.26 CaCl2, 10 HEPES, 2 D-glucose and 1 ascorbic acid (pH 7.4 with NaOH).
A Polychrome V (Till Photonics) was used as the light source. The sample was illuminated with excitation light at 436±10 nm (beam splitter dichroic long-pass; DCLP 460 nm). Excitation time was 10 ms at 10 Hz, in order to limit photobleaching. Emission light intensities were determined at 535±15 and 480±20 nm (DCLP 505 nm). No corrections for spillover between channels or direct YFP excitation were made.
Single cells were selected for recording based on their σ1 expression as judged by its fluorescence. […] The ligands were applied using a pressure-driven, computer-controlled perfusion system (Octaflow; ALA Scientific Instruments, Westbury, N.Y., USA) and experiments were carried out at room temperature. Finally, a Digidata 1440 analog/digital converter (Molecular Devices, Sunnyvale, Calif., USA) was used for interfacing the photometry system and the perfusion system with a personal computer, which was used to control these systems and to record data. Finally, pCLAMP (Molecular Devices) and GraphPad Prism (GraphPad Software Inc., San Diego, Calif., USA) software were used for data collection and analysis.

σ1 site = σ1 site (Homo sapiens, UniProt Q99720); conditions: cited from earlier work
sigma-2 (σ2) site = sigma-2 (σ2) site (Homo sapiens, UniProt Q5BJF2); conditions: cited from earlier work
Sequence of sigma-2 (σ2) site (Q5BJF2 whole entry): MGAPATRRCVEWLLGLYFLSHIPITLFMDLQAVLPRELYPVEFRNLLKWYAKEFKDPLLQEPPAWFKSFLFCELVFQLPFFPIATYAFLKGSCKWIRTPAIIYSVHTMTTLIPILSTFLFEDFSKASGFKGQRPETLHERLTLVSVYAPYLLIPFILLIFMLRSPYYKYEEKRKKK

SMILES: O=C(CCCN1CCC(O)(c2ccc(Cl)cc2)CC1)c1ccc(F)cc1 [Haloperidol]
- FRET in the presence of ligand (σ1^YFP and CFP): no FRET

SMILES: COc1ccc2c(c1)[C@]13CCCC[C@@H]1[C@H](C2)N(C)CC3 [Dextromethorphan]
- change in the FRET signal of the σ1^spCFP/YFP [1]: decrease

SMILES: CC(C)=CCN1CCC2(C)c3cc(O)ccc3CC1C2C (single isomer, unassigned; (+)) [(+)-Pentazocine]
- change in the FRET signal of the σ1^spCFP/YFP [1]: decrease

SMILES: C=CCN1CC[C@]2(C)c3cc(O)ccc3C[C@H]1[C@H]2C [SKF-10,047]
- affinity for the σ1 site (σ1 site): nanomolar affinity
- affinity for the sigma-2 (σ2) site (sigma-2 (σ2) site): micromolar affinity

SMILES: CCCN1CCC[C@H](c2cccc(O)c2)C1 [(+)-3-PPP]
- change in the FRET signal of the σ1^spCFP/YFP [1]: decrease

SMILES: CCCN(CCC)CCc1ccc(OC)c(OCCc2ccccc2)c1 [NE-100]
- change in the FRET signal of the σ1^spCFP/YFP [1]: increase

SMILES: O=C(OCCN1CCOCC1)C1(c2ccccc2)CCCCC1 [PRE-048]
- delay before FRET change ([1]; 100 μM ligand): ~5 s
- time constant τ of monoexponential time course of FRET change ([1]; 100 μM ligand, n=3): 10.3 ± 0.3 s
- change in the F*535/F*480 ratio ([1]; 100 μM ligand, rapid superfusion, single HEK-293 cells, FIG. 2D-E): rapid decrease
- change in the FRET signal of the σ1^spCFP/YFP [1]: decrease
- FRET in the presence of ligand (σ1^YFP and CFP): no FRET
